Where two headings read alike, the source gives them in different places. Numbered stars: 1 amine (or outer) side, 2 acyl side, 3 side chain; on linkers, the order of the positions; unused ones are H or OH. Side chains are listed from the residue outwards. Ends that are not written are not given here. Peptide text beside a SMILES is read from it. * marks the point of attachment. C20 diacid = O=C(O)CCCCCCCCCCCCCCCCCCC(=O)*; γGlu = O=C(O)[C@H](CCC(=O)[*:2])N[*:1]; AEEA = NCCOCCOCC(=O)O Bounds are passed on as bounds.

The target in one series is T1, Human CRF2 receptor (Homo sapiens, UniProt Q13324).
T1 construct: host or cells: CHO-K1 (membrane preparation)
T1 sequence (Q13324 1-411): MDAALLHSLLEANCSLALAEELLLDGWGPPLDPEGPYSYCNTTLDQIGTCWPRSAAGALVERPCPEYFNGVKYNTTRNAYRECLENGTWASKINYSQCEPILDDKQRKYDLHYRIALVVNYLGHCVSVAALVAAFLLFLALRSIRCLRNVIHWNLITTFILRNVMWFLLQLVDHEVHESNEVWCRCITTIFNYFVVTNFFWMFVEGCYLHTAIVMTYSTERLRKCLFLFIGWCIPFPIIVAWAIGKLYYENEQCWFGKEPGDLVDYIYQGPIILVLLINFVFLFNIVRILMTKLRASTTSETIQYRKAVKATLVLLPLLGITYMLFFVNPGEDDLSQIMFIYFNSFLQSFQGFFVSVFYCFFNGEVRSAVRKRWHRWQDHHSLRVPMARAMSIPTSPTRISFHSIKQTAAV
Briefly: CRF2 receptor binding, scintillation proximity assay (SPA). As to conditions: displacement of [125I]-Sauvagine, CHO-K1 cell membranes. On the procedure:
(§1) The purpose of this example was to test the in vitro binding of the compounds of the invention to receptor subtypes CRF1 and CRF2. The in vitro binding of the compounds was determined in a scintillation proximity assay (SPA) as described below. The native, human Ucn1 and Ucn2 peptides are included as references. Scintillation Proximity Assay: […] Both cell lines were cultured at 37° C. in a humidified atmosphere with 5% CO2. […] Membranes were prepared by the following protocol: cultured cells were washed twice with cold Dulbecco’s phosphate buffered saline and detached using TrypLE™ (ThermoFisher) and transferred to tubes and centrifuged for 5 minutes at 1000 g at +4° C. Pellets were resuspended in ice cold homogenization buffer (20 mM Hepes pH 7.1, 5 mM MgCl2, 1 mg/ml Bacitracin with 2 complete EDTA-free protease inhibitor cocktail tablets/50 ml (Roche)) and then homogenized for 30 seconds using a Ultra-Turrax T25 tissue homogenizer (IKA) at medium speed. The homogenate was centrifuged at 35,000 g for 15 minutes at +4° C. using an ultracentrifuge, and the supernatant was discarded, and fresh homogenization buffer was added. Homogenization of the pellet was repeated a total of three times. The final pellet was resuspended in a few millilitres of homogenization buffer and protein concentration was determined using the Bradford method. The membrane preparation was transferred to cryotubes, and the aliquots were stored at -80° C. Each membrane preparation was subsequently titrated to give an appropriate window in the assay. Test procedure: […] Plates were sealed and incubated at 25° C. for 2 hours in a plate shaker set at 400 rpm and thereafter centrifuged at 1500 rpm for 10 minutes. SPA plates were let to stand at room temperature for about 16 hours prior to reading on microplate scintillation counter. Displacement of radioligand was measured as reduction in luminescence, and IC50 values were calculated by nonlinear regression analysis of four parameter sigmoidal dose-response curves.
For orientation: SPA uses beads or plates that emit light when radiolabelled molecules are held near them.

For the next series, the target named is T2, Human CRF1 receptor (Homo sapiens, UniProt P34998).
T2 construct: host or cells: CHO-K1 (membrane preparation)
T2 sequence (P34998 24-415): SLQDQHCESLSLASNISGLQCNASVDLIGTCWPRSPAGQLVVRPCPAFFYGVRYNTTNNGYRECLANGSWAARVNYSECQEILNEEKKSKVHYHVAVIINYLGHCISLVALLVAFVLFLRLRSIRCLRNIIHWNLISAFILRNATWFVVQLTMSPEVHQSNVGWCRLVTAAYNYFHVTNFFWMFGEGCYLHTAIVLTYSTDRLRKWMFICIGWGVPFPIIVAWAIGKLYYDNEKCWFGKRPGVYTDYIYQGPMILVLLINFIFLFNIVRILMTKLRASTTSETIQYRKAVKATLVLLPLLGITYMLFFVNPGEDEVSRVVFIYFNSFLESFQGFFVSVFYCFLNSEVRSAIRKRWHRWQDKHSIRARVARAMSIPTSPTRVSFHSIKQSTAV
Briefly: CRF1 receptor binding, scintillation proximity assay (SPA). As to conditions: displacement of [125I]-Sauvagine, CHO-K1 cell membranes. The protocol: as §1

For series [1] the following is noted: for Average purity loss per week: 8 mM sodium phosphate buffer pH 7.4, 0.7-1.1 mM, 37° C., 0-4 weeks, UPLC.
Excerpt: The purpose of the study was to evaluate the chemical stability of a liquid pharmaceutical formulation comprising test compound. The chemical stability was be determined by measuring test compound purity loss (i.e. reduction of test compound relative to other species in the sample) over time using ultra-performance liquid chromatography (UPLC) coupled to an ultra-violet detector operated in reversed-phase mode.
Equipment and analysis conditions: Acquity UPLC I-Class instrument (Waters, Milford, US) together with either an Acquity UPLC CSH Fluorophenyl column (PN. 186005353 from Waters, Milford, US) or an Acquity Premier CSH column (PN. 186009462 from Waters, Milford, US), both having the dimensions 150 × 2.1 mm, particle diameter 1.7 µm and kept at 30° C., was used for the test. Mobile phase A was 0.1% vol/vol trifluoroacetic acid in water and mobile phase B was 0.09% vol/vol trifluoroacetic acid in acetonitrile. The flow rate was 0.35 mL/min while elution was done with a linear gradient of 26% to 40% mobile phase B over 50 min for the UPLC Fluorophenyl column and 30% to 50% mobile phase B over 50 min for the Premier CSH column. Detection was performed at UV 214 nm with 2 µL of volume injected from each sample.
Samples were kept in glass vials for quiescent storage in a 37° C. incubation chamber and subjected to analysis after 0, 1, 2, 3 and 4 weeks. Samples were analysed using UPLC (as described above) with chromatogram peak area as a measure of test compound concentration. Purity was determined at each timepoint as the fraction, given in %, of test compound relative to other species present in the sample. The purity loss over time is the relative difference in % test compound between timepoints and it is reported in Table 7 as the average from the five timepoints.
The nature of series [2]: Physical stability of liquid formulation (visible particles, turbidity). The format is physicochemical. As to conditions: 8 mM sodium phosphate; for Particle formation onset: pH 7.4, 31-37 mg/mL (Compound 7: 21 mg/mL), 37° C., 2 weeks, daily rotation. On the procedure:
The purpose of the study was to evaluate the physical stability of a liquid pharmaceutical formulation comprising test compound. The physical stability was determined as the formation of visible particles and the change in turbidity over time.
Test procedures: Test compound was dissolved in 8 mM sodium phosphate, pH 7.4 to a concentration of 31-37 mg/mL in vials (except for Compound 7 which was dissolved to a concentration of 21 mg/mL and Compound 5 which was not soluble at concentrations of ≥20 mg/mL). The vials were incubated at 37° C. for 2 weeks. Every day the vials were rotated end-to-end for 1 minute, 30 rounds. Every second day the vials were placed in front of a black background with strong LED light (Schott light source, KL2500) illuminating from below and a picture for analysis was taken.
Analysis: “Average pixel intensity” is a measure of turbidity of a liquid solution. It was measured by taking the average pixel intensity, ranging from 0 (black) to 255 (white), in a small square of a digital image of the glass vials containing a liquid solution and results are reported in FIG. 1. “Particle density” is a measure of visible particles in a liquid solution. It was measured by counting the number of visible particles in a region of a digital image of the glass vial containing a liquid solution and dividing with the area of the region and the results are reported in FIG. 2.

One may read the IC50 as the concentration that inhibits the measured activity by half. In the case of `CC[C@H](C)[C@H](NC(=O)[C@H](CCCNC(=N)N)NC(=O)[C@H](C)NC(=O)[C@H](CC(N)=O)NC(=O)[C@@H](NC(=O)[C@@H](NC(=O)[C@H](C)NC(=O)[C@H](CCC(N)=O)NC(=O)[C@H](CCC(=O)O)NC(=O)[C@H](CCCNC(=N)N)NC(=O)[C@H](C)NC(=O)[C@H](C)NC(=O)[C@H](CCCNC(=N)N)NC(=O)[C@H](C)NC(=O)[C@H](CCCNC(=N)N)NC(=O)[C@H](C)NC(=O)[C@H](CCC(N)=O)NC(=O)[C@H](CCC(=O)O)NC(=O)[C@H](CC(C)C)NC(=O)[C@H](CC(C)C)NC(=O)[C@@H](NC(=O)[C@H](CCC(N)=O)NC(=O)[C@H](CC(C)C)NC(=O)[C@H](CC(C)C)NC(=O)CNC(=O)[C@@H](NC(=O)[C@@H]1CCCN1C(=O)[C@@H](NC(=O)[C@H](CC(=O)O)NC(=O)[C@H](CC(C)C)NC(=O)[C@H](CO)NC(=O)[C@H](CC(C)C)NC(=O)[C@@H](NC(=O)[C@@H](NC(=O)[C@@H](N)CCCCNC(=O)COCCOCCNC(=O)COCCOCCNC(=O)CC[C@H](NC(=O)CC[C@H](NC(=O)CC[C@H](NC(=O)CCCCCCCCCCCCCCCCCCC(=O)O)C(=O)O)C(=O)O)C(=O)O)[C@@H](C)CC)C(C)C)C(C)C)[C@@H](C)CC)[C@@H](C)CC)[C@@H](C)O)[C@@H](C)O)C(=O)N[C@@H](CCC(=O)O)C(=O)N[C@@H](C)C(=O)N[C@@H](CCCNC(=N)N)C(=O)N[C@H](C(N)=O)C(C)C` [Compound 9] (H-K([AEEA-AEEA-γGlu-γGlu-γGlu-C20 diacid])IVLSLDVPIGLLQILLEQARARAAREQATTNARIEARV-NH2), the IC50 was 897 nM at Human CRF2 receptor and over 1000 nM on Human CRF1 receptor.
Consider `CC[C@H](C)[C@H](NC(=O)[C@H](CCC(=O)O)NC(=O)[C@H](C)NC(=O)[C@H](CC(N)=O)NC(=O)[C@@H](NC(=O)[C@@H](NC(=O)[C@H](C)NC(=O)[C@H](CCC(N)=O)NC(=O)[C@H](CCC(=O)O)NC(=O)[C@H](CCCNC(=N)N)NC(=O)[C@H](C)NC(=O)[C@H](C)NC(=O)[C@H](CCCNC(=N)N)NC(=O)[C@H](C)NC(=O)[C@H](CCCNC(=N)N)NC(=O)[C@H](C)NC(=O)[C@H](CCC(N)=O)NC(=O)[C@H](CCC(=O)O)NC(=O)[C@H](CC(C)C)NC(=O)[C@H](CC(C)C)NC(=O)[C@@H](NC(=O)[C@H](CCC(N)=O)NC(=O)[C@H](CC(C)C)NC(=O)[C@H](CC(C)C)NC(=O)CNC(=O)[C@@H](NC(=O)[C@@H]1CCCN1C(=O)[C@@H](NC(=O)[C@H](CC(=O)O)NC(=O)[C@H](CC(C)C)NC(=O)[C@H](CO)NC(=O)[C@H](CC(C)C)NC(=O)[C@@H](NC(=O)[C@@H](NC(=O)[C@@H](N)CCCCNC(=O)COCCOCCNC(=O)COCCOCCNC(=O)CC[C@H](NC(=O)CC[C@H](NC(=O)CC[C@H](NC(=O)CCCCCCCCCCCCCCCCCCC(=O)O)C(=O)O)C(=O)O)C(=O)O)[C@@H](C)CC)C(C)C)C(C)C)[C@@H](C)CC)[C@@H](C)CC)[C@@H](C)O)[C@@H](C)O)C(=O)N[C@@H](CCC(=O)O)C(=O)N[C@@H](C)C(=O)N[C@@H](CCCNC(=N)N)C(=O)N[C@H](C(N)=O)C(C)C` [Compound 10] (H-K([AEEA-AEEA-γGlu-γGlu-γGlu-C20 diacid])IVLSLDVPIGLLQILLEQARARAAREQATTNAEIEARV-NH2), for which the IC50 was 569 nM at Human CRF2 receptor and over 1000 nM on Human CRF1 receptor.
The matching figures for `CC[C@H](C)[C@H](NC(=O)[C@H](CCC(=O)O)NC(=O)[C@H](C)NC(=O)[C@H](CC(N)=O)NC(=O)[C@@H](NC(=O)[C@@H](NC(=O)[C@H](C)NC(=O)[C@H](CCC(N)=O)NC(=O)[C@H](CCC(=O)O)NC(=O)[C@H](CCCNC(=N)N)NC(=O)[C@H](C)NC(=O)[C@H](C)NC(=O)[C@H](CCCNC(=N)N)NC(=O)[C@H](C)NC(=O)[C@H](CCCNC(=N)N)NC(=O)[C@H](C)NC(=O)[C@H](CCC(N)=O)NC(=O)[C@H](CCC(=O)O)NC(=O)[C@H](CC(C)C)NC(=O)[C@H](CC(C)C)NC(=O)[C@@H](NC(=O)[C@H](CCC(N)=O)NC(=O)[C@H](CC(C)C)NC(=O)[C@H](CC(C)C)NC(=O)CNC(=O)[C@@H](NC(=O)[C@@H]1CCCN1C(=O)[C@@H](NC(=O)[C@H](CC(=O)O)NC(=O)[C@H](CC(C)C)NC(=O)[C@H](CO)NC(=O)[C@H](CC(C)C)NC(=O)[C@@H](NC(=O)[C@@H](N)CCCCNC(=O)COCCOCCNC(=O)COCCOCCNC(=O)CC[C@H](NC(=O)CC[C@H](NC(=O)CC[C@H](NC(=O)CCCCCCCCCCCCCCCCCCC(=O)O)C(=O)O)C(=O)O)C(=O)O)C(C)C)C(C)C)[C@@H](C)CC)[C@@H](C)CC)[C@@H](C)O)[C@@H](C)O)C(=O)N[C@@H](CC(C)C)C(=O)N[C@@H](CCC(=O)O)C(=O)N[C@@H](CCCNC(=N)N)C(=O)N[C@H](C(N)=O)C(C)C` [Compound 11] (H-K([AEEA-AEEA-γGlu-γGlu-γGlu-C20 diacid])VLSLDVPIGLLQILLEQARARAAREQATTNAEILERV-NH2): 196 nM and over 1000 nM.
On Human CRF2 receptor, “DNPSLSIDLTFHLLRTLLELARTQSQRERAEQNRIIFDSV-NH2 [Compound 1]” came in with an IC50 of 0.12 nM.
Regarding “N{ε}-[[[(4S)-4-carboxy-4-[[(4S)-4-carboxy-4-[[(4S)-4-carboxy-4-(19-carboxynonadecanoylamino)butanoyl]amino]butanoyl]amino]butanoyl]amino]ethoxy]ethoxy]a cetyl]amino]ethoxy]ethoxy]acetyl]Lys-[Glu33]-hUcn2 [Compound 6]”, the “Average purity loss per week” value in series [1] was found to be 0.90%. The same molecule gave a Particle formation onset in series [2] of 1 days.
The corresponding values for “N{ε}-[[[(4S)-4-carboxy-4-[[(4S)-4-carboxy-4-[[(4S)-4-carboxy-4-(19-carboxynonadecanoylamino)butanoyl]amino]butanoyl]amino]butanoyl]amino]ethoxy]ethoxy]a cetyl]amino]ethoxy]ethoxy]acetyl]Lys-[Glu36]-hUcn2 [Compound 7]” are 3.95% and 7 days.
For the molecule “N{ε}-[[[(4S)-4-carboxy-4-[[(4S)-4-carboxy-4-[[(4S)-4-carboxy-4-(19-carboxynonadecanoylamino)butanoyl]amino]butanoyl]amino]butanoyl]amino]ethoxy]ethoxy]a cetyl]amino]ethoxy]ethoxy]acetyl]Lys-[Glu37]-hUcn2 [Compound 8]”, in series [1], the “Average purity loss per week” value came out at 2.43%.
In the case of “N{ε}-[[[(4S)-4-carboxy-4-[[(4S)-4-carboxy-4-[[(4S)-4-carboxy-4-(19-carboxynonadecanoylamino)butanoyl]amino]butanoyl]amino]butanoyl]amino]ethoxy]ethoxy]a cetyl]amino]ethoxy]ethoxy]acetyl]Lys-hUcn2 [Compound 5]”, the “Average purity loss per week” value in series [1] is “Not soluble”. The “Solubility (not soluble at concentrations of)” value in series [1] (pH 7.4) is under 700 µM; in series [2] (pH 7.4) it was under 20 mg/mL. Besides, the Particle formation onset entry in series [2] is listed as “Not soluble”.

(Values after patent publication US20230233650A1, “NOVEL FATTY ACID MODIFIED UROCORTIN 2 DERIVATIVES AND THE USES THEREOF” (Novo Nordisk A/S, priority 2021, published 2023).)
